Source: US6964772B1, “Chitosan-xanthan based polyionic hydrogels for stabilization and controlled release of vitamins” (Kemestrie Inc., priority 1998, dated 2005)

Assay: Determination of the Vitamin C stability in the cream base at 45° C.
Assay type: physicochemical
Details: cream with 5-25 wt % Vitamin C, after 30 days at 45° C., protected from light
Method: The method consists of introducing 20 to 30 mg of freeze-dried CHITOXAN™ loaded with Vitamin C in a 50 ml centrifuge tube together with 40 ml of the extraction solvent. The mixture is magnetically stirred for 60 minutes. The suspension formed is centrifuged (4000 rpm) and the supernatant is analysed. All operations are done in absence of light.
This determination requires the establishment of a calibration curve at a maximum absorption wavelength using a UV-vis spectrophotometer. A standard is prepared with the same solution (and solvent) initially used to introduce the Vitamin C within the CHITOXAN™. Experimentation has shown an absorption maximum at 243 nm for Vitamin C at 98% purity obtained from ALDRICH.
The calibration curve is constructed at 243 nm as follows. A solution of 1.3 mg/ml of Vitamin C in the solvent is prepared in a graduated cylinder. The solution is prepared just before analysis. By successive dilutions, the absorption versus concentration calibration curve (mg/ml) is thus measured.
The concentration of Vitamin C in the supernatant obtained via extraction is determined at 243 nm using the calibration curve. […]
10 g of the preparation obtained by inclusion of CHITOXAN™—Vit. […] Samples not immediately analysed were kept frozen at −4° C.
The aliquots were analysed with the method described earlier (always using the extraction solvent). […]

- coloration of the cream: an orange coloration appeared
- degradation of Vitamin C: 98%
SMILES: O=C1O[C@H]([C@@H](O)CO)C(O)=C1O [free Vitamin C, Vitamin C]
